Data reported in patent US6214859A, “Ethylamine derivatives” (Fujimoto Brothers Co., Ltd., priority 1997, dated 2001).

Assays:
[1] = system: dopamine release, tuberculum olfactorium; assay: Release of biogenic amines from brain tissue: dopamine, tuberculum olfactorium; format: in vivo, Wistar rats
Experimental: (§1) The method described in Life Sci., 56, 611-620 (1995) was used. After Wistar rats were decapitated, appropriate brain samples, which were striatun, substantia nigra, tuberculum olfactorium, locus coeruleus and raphe, were removed quickly and soaked in oxygenated (95% O2 and 5% CO2) Krebs solution at 37° C. The composition of Krebs solution was as follows in […]: NaCl 111, KCl 4.7, CaCl2 2.5, MgSO4 1.64, NaHCO3 25, KH2 PO4 1.2, glucose 11, 50 mg/l ascorbic add and 20 mg/l EDTA-2 Na. The preparations, soaked in one organ bath, were as follows: 1) four pieces of striatum (each halved), 2) four pieces of substantia nigra, 3) four pieces of tuberculum olfactorium; 4) eight pieces of locus coeruleus; 5) eight pieces of raphe. After incubation of the appropriate tissue for 20 min, the Krebs solution was replaced, the tissue soaked for 20 min in Krebs solution dissolving the compounds of this invention and the amount of biogenic amine released during this period of time was estimate. The compounds of this invention and PPAP, control compound, were dissolved in saline and were administered subcutaneously before 30 min to removing brain sample. For measuring noradrenaline and dopamine, samples were purified on 60 mg alumina containing micro columns (BDH Chemicals Ltd.) according to the method described in J. Pharmacol. Exp. Ther., 138, 360-372 (1962) For measuring serotonin, samples were purified on 15 mg Sephadex G-10 micro columns (Pharmacia). Dopamine, noradrenaline and serotonin were determined by high performance liquid chromatography (Waters 746 data module) with electrochemical detection (Waters 460 electrochemical detector). Waters Resolve 5μ Spherical C18 3.9×150 mm column was used as separating column and triethylamine-phosphate buffer (pH 5.2), containing 200 mg/l octane sulfonate sodium and 18 mg/l EDTA-2 Na with 6% acetonitrile, was used as mobile phase. The release amount of appropriate amine was noted as nmol/g tissue released for 20 min. deference of means tested by Student's t-test and significant level was set at P<.05.

[2] = system: noradrenaline release, locus coeruleus; assay: Release of biogenic amines from brain tissue: noradrenaline, locus coeruleus; format: in vivo, Wistar rats
Experimental: as §1

serotonin release, raphe = assay: Release of biogenic amines from brain tissue: serotonin, raphe; format: in vivo, Wistar rats
Experimental: as §1

[3] = system: rats reduced learning ability by tetrabenazine; assay: Conditioned avoidance task in the shuttle box (tetrabenazine-treated rats); format: in vivo, rat; settings: tetrabenazine 1 mg/kg s.c., significance and direction
Experimental: The method described in Life Sci., 58, 817-827 (1996) was used. The effects on conditioned avoidance reflex (CARs) was analyzed in the shuttle box using male and female rats (weighing 200-220 g) whose leaning abilities were reduced by treatment of tetrabenazine. The instrument was constructed, according to the device described in Psychopharmacologia 10, 1-5 (1966) by the Research Institute for Electrical Industry (Budapest, Hungary). The male and female rats (weighing 200-220 g) were trained to cross the berrier under the influence of a conditioned stimulus (CS) (light flash and buzzer sounds). […] And the performance which was not related to this condition was noted as an intersignal reaction (IR). The rats were trained with 100 trials per day for 5 days. One trial consisted of 15 sec intertrial interval. The saline solution of tetrabenazine was administered at a dose of 1 mg/kg subcutaneously before one hour prior to the test and then the solution of the compounds of this invention were administered at the doses of 1, 2, 2.5 and 5 mg/kg subcutaneously with the simultaneous administration of tetrabenazine. The nmbers of CARs, EFs and IRs were automatically counted and evaluated by multi-way analysis of variance (ANOVA).

[4] = system: dopamine release, substantia nigra; assay: Release of biogenic amines from brain tissue: dopamine, substantia nigra; format: in vivo, Wistar rats
Experimental: as §1

[5] = system: dopamine release, striatum; assay: Release of biogenic amines from brain tissue: dopamine, striatum; format: in vivo, Wistar rats
Experimental: as §1

human platelet MAO-B = target: T1, human platelet MAO-B (Homo sapiens, UniProt P27338); assay: biochemical; settings: 10^-5 M; read-out: Inhibition rate of MAO-B
T1 construct: The suspension was used as enzyme for MAO activity assay in blood platelets; from tissue; host or cells: human blood platelets (frozen, thawed and sonicated platelet rich plasma)
T1 sequence (P27338 1-520): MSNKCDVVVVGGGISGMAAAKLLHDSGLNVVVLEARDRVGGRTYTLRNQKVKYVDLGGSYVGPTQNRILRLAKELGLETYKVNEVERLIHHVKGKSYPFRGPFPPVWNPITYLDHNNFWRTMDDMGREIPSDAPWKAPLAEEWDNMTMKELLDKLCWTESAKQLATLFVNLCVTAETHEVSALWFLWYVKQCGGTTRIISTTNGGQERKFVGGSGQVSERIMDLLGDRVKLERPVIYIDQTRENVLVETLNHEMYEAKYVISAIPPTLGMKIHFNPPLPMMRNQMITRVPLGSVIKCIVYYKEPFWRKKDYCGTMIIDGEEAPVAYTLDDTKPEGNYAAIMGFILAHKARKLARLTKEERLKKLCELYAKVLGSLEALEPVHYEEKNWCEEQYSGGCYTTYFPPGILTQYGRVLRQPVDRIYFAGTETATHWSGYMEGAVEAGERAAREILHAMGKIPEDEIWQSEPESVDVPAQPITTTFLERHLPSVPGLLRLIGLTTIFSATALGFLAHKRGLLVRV
Experimental: Human blood added with 3.8% citric acid was centrifuged at 950 rpm for 10 min and platelet rich plasma (PRP) was obtained. The residual blood cell was centrifuged at 3,000 rpm for 10 min and platelet poor plasma (PPP) was obtained. After blood platelets were measured from a part of PRP, PRP and PPP were frozen at -20° C. They were thawed and were sonicated to be dispersed and suspended when MAO activity was measured. The suspension was used as enzyme for MAO activity assay in blood platelets. In addition, almost all of MAO in blood platelets have been known to be B type.
MAO-B activity was determined according to the method described in Biochem. Pharmacol., 14, 1684-1685 (1965). […] The mixture was incubated at 37° C. for 5 min. After 80 μl of PRP or PPP was added to it, the mixture was incubated at 37° C. for 20 min. Thereafter, 120 μl of substrate (0.33 mg/ml kynuramine dihydrobromide) was added thereto. After incubation at 37° C. for 30 min, 800 μl of 10% trichloroacetic acid were added to stop the reaction and the solution was centrifuged at 3,000 rpm for 10 min. To 1 ml of the supernatant, 2 ml of 1 N NaOH was added and fluorescence of the solution was measured at Ex 312 nm and Em 380 nm. PRP was prepared to 250,000 cell/μl as amounts of blood platelets with […] phosphate buffer solution and 4-hydroxyquinoline was used as standard for measurement.

[6] = Toxicity screening using primary cultured hepatocyte (LDH release); format: cell-based, rat; settings: rat, primary hepatocytes, 24 hr, control 0.5% saline or 0.5% DMSO, read-out: Percent control of LDH release
Experimental: The hepatocytes was prepared from rat liver by collagenase perfusion method and suspension containing 5×10^5 cells/ml were prepared. After cultivation for 24 hr, the suspension was exchanged to the William's Medium E (GIBCO BRL) containing 10 or 100 μM of the compounds of this invention. After cultivation for 24 hr, the activity of lactate dehydrogenase (LDH) released in the medium was measured.

Row | Structure (SMILES) | Release of dopamine, tuberculum olfactorium ([1]; 1.00 mg/kg s.c.) | Release of noradrenaline, locus coeruleus ([2]; 1.00 mg/kg s.c.) | Release of serotonin, raphe (serotonin release, raphe; 1.00 mg/kg s.c.) | Condition Avoidance Reflex (CARs) ([3]; 1 mg/kg s.c.) | Condition Avoidance Reflex (CARs) ([3]; 5 mg/kg s.c.) | Escape Failures (EFs) ([3]; 5 mg/kg s.c.) | Release of dopamine, substantia nigra ([4]; 1.00 mg/kg s.c.) | Release of dopamine, striatum ([5]; 1.00 mg/kg s.c.) | inhibition at 10 µM (human platelet MAO-B) [%] | Release of dopamine, tuberculum olfactorium ([1]; 0.25 mg/kg s.c.) | Release of noradrenaline, locus coeruleus ([2]; 0.25 mg/kg s.c.) | Release of serotonin, raphe (serotonin release, raphe; 0.25 mg/kg s.c.) | Release of dopamine, substantia nigra ([4]; 0.25 mg/kg s.c.) | Release of dopamine, striatum ([5]; 0.25 mg/kg s.c.) | activity at 24 h, 10 µM [6] [%] | activity at 24 h, 100 µM [6] [%] | further results
1 | CCCC(Cc1ccc2ccccc2c1)NCC (stereo not shown) [Compound No. 6] | 5.3 ± 0.19 nmol/g tissue, for 20 min | 3.1 ± 0.05 nmol/g tissue, for 20 min | 0.708 ± 0.07 nmol/g tissue, for 20 min | **** .Arrow-up bold. | **** .Arrow-up bold. | * .dwnarw. | 6.7 ± 0.26 nmol/g tissue, for 20 min | 3.6 ± 0.12 nmol/g tissue, for 20 min | 24.5 |  |  |  |  |  |  |  | Escape Failures (EFs) ([3]; 1 mg/kg s.c.): * .dwnarw.
2 | CCCNC(CCC)Cc1cccc2c1OCO2.Cl (stereo not shown) [Compound No. 28, 1-(1,3-Benzodioxol-4-yl)-2-propylaminopentane Hydrochloride] | 4.6 ± 0.22 nmol/g tissue, for 20 min | 3.7 ± 0.10 nmol/g tissue, for 20 min | 1.017 ± 0.06 nmol/g tissue, for 20 min | * .Arrow-up bold. | **** .Arrow-up bold. | *** .dwnarw. | 5.4 ± 0.27 nmol/g tissue, for 20 min | 4.0 ± 0.18 nmol/g tissue, for 20 min | 22.2 | 3.8 ± 0.22 nmol/g tissue, for 20 min | 3.6 ± 0.35 nmol/g tissue, for 20 min | 1.031 ± 0.03 nmol/g tissue, for 20 min | 6.1 ± 0.35 nmol/g tissue, for 20 min | 3.4 ± 0.16 nmol/g tissue, for 20 min | 93 ± 6.92 | 148 ± 6.55 | Release of dopamine, tuberculum olfactorium ([1]; 5.00 mg/kg s.c.): 3.1 ± 0.14 nmol/g tissue, for 20 min; Release of noradrenaline, locus coeruleus ([2]; 5.00 mg/kg s.c.): 3.9 ± 0.10 nmol/g tissue, for 20 min; Release of serotonin, raphe (serotonin release, raphe; 5.00 mg/kg s.c.): 1.436 ± 0.01 nmol/g tissue, for 20 min; Condition Avoidance Reflex (CARs) ([3]; 2.5 mg/kg s.c.): **** .Arrow-up bold.; Escape Failures (EFs) ([3]; 2.5 mg/kg s.c.): **** .dwnarw.; Release of dopamine, substantia nigra ([4]; 5.00 mg/kg s.c.): 4.9 ± 0.17 nmol/g tissue, for 20 min; Release of dopamine, striatum ([5]; 5.00 mg/kg s.c.): 3.1 ± 0.13 nmol/g tissue, for 20 min
3 | CCCNC(CCC)Cc1cccc2ccccc12 (stereo not shown) [Compound No. 5, 1-(1-Naphthyl)-2-propylaminopentane] | 4.6 ± 0.13 nmol/g tissue, for 20 min | 4.4 ± 0.50 nmol/g tissue, for 20 min | 0.571 ± 0.01 nmol/g tissue, for 20 min |  |  |  | 4.4 ± 0.16 nmol/g tissue, for 20 min | 3.2 ± 0.14 nmol/g tissue, for 20 min | 17.3 | 6.0 ± 0.16 nmol/g tissue, for 20 min | 3.9 ± 0.25 nmol/g tissue, for 20 min | 0.425 ± 0.02 nmol/g tissue, for 20 min | 5.6 ± 0.18 nmol/g tissue, for 20 min | 4.3 ± 0.14 nmol/g tissue, for 20 min | 111 ± 4.02 | 195 ± 9.16 | 
